Results on four substances are retold here after patent US20150073123A1, “SYNTHETIC PEPTIDES WITH A NON-NARCOTIC TYPE OF ANALGESIC EFFECT” (priority 2012, published 2015).

The subject of experiment [1] is rats. Briefly: Rat formalin test, suboccipital injection of peptide 20 min before formalin. The experiment is classed as in vivo. The note with it: for Duration of the first peak of pain reaction / Time of pain reaction onset: Table 2, suboccipital injection. As to the method:
Analgesic activity of newly synthesized peptides was examined in the “formalin test” which allows discovering non-narcotic type of anesthesia (Wheeler-Aceto H., Porrea F., A. Cowan. The rat paw formalin test: comparison of noxious agents. Pain, 40 (1990), 229-238).
(§1) Analgesic activity of newly synthesized peptides was examined as follows. Rats weighing 180-200 g were suboccipitally injected with the study peptide under ether anesthesia using a microdispenser in 10 μl of normal saline. Control animals were similarly injected with the equal amount of normal saline. After 20 minutes, 50 mcl of formalin solution at a dilution of 1:50 was injected into the dorsal surface of the right hind paw. The time of peptide injection and formalin dilution has been developed earlier. Each rat was used only once. The most clear behavioral indicators of pain reaction were expressed in paw tucking, licking, nibbling and jolting. Moreover, the first acute reaction to pain lasting for 6-7 min in control animals was followed by the dormant period: a rat lowered its paw, grooming behavior and nibbling was stopped. Then the reaction was repeated with expression not less than the previous one—it was the second phase of pain reaction.
The moment of paw tucking (beginning of the 1st phase of pain reaction), duration of this reaction, duration of dormancy and time of onset of the second phase of reaction—repeated paw tucking or its absence—were visually recorded in order to obtain quantitative data. Peptide was injected 20 min prior to formalin injection in case of suboccipital method of peptide injection and 30 min prior to formalin injection in case of intranasal method.

Experiment [2] concerns rats. Briefly: Rat formalin test, intranasal administration of peptide 30 min before formalin. Format: in vivo. The note with it: Table 7; for Duration of the 1st peak of pain reaction: in s. The procedure:
as §1
The moment of paw tucking (beginning of the 1st phase of pain reaction), duration of this reaction, duration of dormancy and time of onset of the second phase of reaction—repeated paw tucking or its absence—were visually recorded in order to obtain quantitative data. Peptide was injected 20 min prior to formalin injection in case of suboccipital method of peptide injection and 30 min prior to formalin injection in case of intranasal method. […]

The conditions of experiment [3]: earlier work; cited from earlier work.
For experiment [4], the system named is rats. The note with it: earlier work of Kotin, Vlasov et al. 1988; cited from earlier work.
The mark [5] stands for this setting: intranasal in citrate phosphate buffer, 30 min prior to formalin 2%, dose 10 μg.

Where no end group is shown, it is not given here.

As to CGRP, in the experiment on rats [1] (Table 4, dose 1 μg), the “Beginning of pain reaction” value is listed as 5 (2) sec, the “Beginning of the 2nd peak” value was 17 (2) min and the “Duration of the 1st peak of pain reaction” value is recorded as 402 (36). Besides, the “Analgesic activity in the formalin test (in words)” value in the experiment with rats [1] (rats) is on record as “does not have analgesic activity”.

Regarding “D-Thr-D-Glu-D-Leu-D-15 Lys-L-His-D-Leu-NH2”, the “Beginning of pain reaction” value was 8 ± 3 s with rats [2] (setting [5]); 48 ± 18 s with rats [2] (intranasal, dose 0.1 μg); 10 ± 2 s in the experiment with rats [2] (intranasal, dose 1 μg). For the same substance, the “Beginning of the 2nd peak” value was 21.0 ± 5.3 min in the experiment with rats [2] (intranasal, dose 0.1 μg); 12.5 ± 1.6, the min with rats [2] (intranasal, dose 1 μg); 15.0 ± 1.6 min with rats [2] (intranasal, dose 10 μg). In addition, the “Duration of the 1st peak of pain reaction” value with rats [2] (intranasal, dose 0.1 μg) was determined as 300 ± 10; with rats [2] (intranasal, dose 1 μg), 342 ± 26; in the experiment with rats [2] (intranasal, dose 10 μg), 314 ± 32. Further, the “Number of rats that do not have the 2nd peak” value with rats [2] (intranasal, dose 1 μg, remark in the 2nd peak column) is “first one has none”.

Take LHKLQT [CT16-21]: the “Impact on calcium metabolism” value in experiment [3] is “does not have immunologic activity, impact on calcium metabolism”. In the experiment on rats [1] (rats, dose 0.001 μg/rat), the “Duration of the first peak of pain reaction” value is 394 (34) sec and the “Time of pain reaction onset” value is on record as 17 (6) sec. Further, in the experiment on rats [1] (rats, dose 0.01 μg/rat), the “Duration of the first peak of pain reaction” value was 328 (21) sec and the “Time of pain reaction onset” value is recorded as 19 (8) sec. Further, in the experiment on rats [1] (rats, dose 0.1 μg/rat), the “Duration of the first peak of pain reaction” value was 263 (20) a < 0.001 sec and the “Time of pain reaction onset” value is reported as 39 (8) a < 0.001 sec. Besides, in the experiment on rats [1] (Table 3, dose 1 μg per rat), the “Beginning of the 2nd peak” value came out at 21 ± 2 min, the “Duration of the 1st peak” value was determined as 284 ± 20 s and the “Number of animals which do not have the 2nd peak of reaction” value worked out at 4. Moreover, in the experiment with rats [1] (Table 3, dose 1 μg per rat, in s), the “Beginning of pain reaction” value was 30 ± 6. The “Analgesic activity in the rat formalin test (in words)” value in the experiment on rats [4] is listed as “high analgesic activity”.

As for “D-Thr-D-Glu-D-Leu-D-Lys-D-His-D-Leu-NH2 [Complete retro-inversion CT16-21]”, the “Beginning of pain reaction” value turned out to be 20 ± 9 s in the experiment on rats [2] (setting [5]); 126 s in the experiment on rats [2] (intranasal, dose 0.1 μg); 12 ± 6 s with rats [2] (intranasal, dose 1 μg). Besides, the “Beginning of the 2nd peak” value is listed as 16.2 ± 2.6 min with rats [2] (intranasal, dose 0.1 μg); 17.4 ± 2.9 min with rats [2] (intranasal, dose 1 μg); 14.4 ± 1.0 min in the experiment on rats [2] (intranasal, dose 10 μg). Further, the “Duration of the 1st peak of pain reaction” value in the experiment on rats [2] (intranasal, dose 0.1 μg) amounted to 249 ± 20; with rats [2] (intranasal, dose 1 μg), 300 ± 46; with rats [2] (intranasal, dose 10 μg), 333 ± 9.
